Laboratory results published in PMC4407702 (International journal of pharmaceutics, 2011).
Converted amounts (≈) assume the structure as drawn. “And” between values parts separate entries of the source, which are not always exact repeats. Equal entries are not always repeated. Where two headings read alike, the source gives them in different places.

Experiments:
[1] = molecular target: SVCT (Canis lupus familiaris, UniProt A8CX01); test: Inhibition of [14C]AA uptake in MDCK-MDR1 cells; assay type: cell-based, canine; settings: 200 μM unlabeled compound, [14C]AA 23.5 μM
[2] = Transepithelial transport across Caco-2 cell monolayers; assay type: in vitro ADME; settings: human, Caco-2
[3] = test system: Caco-2 cell monolayers; test: as above; assay type: in vitro ADME
[4] = molecular target: SVCT (Homo sapiens, UniProt Q9UHI7); test: Inhibition of [14C]AA uptake in Caco-2 cells; assay type: cell-based; settings: 200 μM unlabeled compound, [14C]AA 23.5 μM
[5] = test system: Caco-2 cell monolayers; settings: ref Ucpinar and Stavchansky, 2003; cited from earlier work
[6] = Aqueous solubility study; assay type: physicochemical; settings: distilled deionized water, 25 °C, thermodynamic from solid
[7] = test system: MDCK-MDR1 cell monolayers; settings: ref Jain et al., 2005; cited from earlier work
[8] = Caco-2, [14C]AA 23.5 μM or AA-Su-Saq 25 μM donor, 3 h

Sequence of SVCT (Homo sapiens, UniProt Q9UHI7) (Q9UHI7 whole entry): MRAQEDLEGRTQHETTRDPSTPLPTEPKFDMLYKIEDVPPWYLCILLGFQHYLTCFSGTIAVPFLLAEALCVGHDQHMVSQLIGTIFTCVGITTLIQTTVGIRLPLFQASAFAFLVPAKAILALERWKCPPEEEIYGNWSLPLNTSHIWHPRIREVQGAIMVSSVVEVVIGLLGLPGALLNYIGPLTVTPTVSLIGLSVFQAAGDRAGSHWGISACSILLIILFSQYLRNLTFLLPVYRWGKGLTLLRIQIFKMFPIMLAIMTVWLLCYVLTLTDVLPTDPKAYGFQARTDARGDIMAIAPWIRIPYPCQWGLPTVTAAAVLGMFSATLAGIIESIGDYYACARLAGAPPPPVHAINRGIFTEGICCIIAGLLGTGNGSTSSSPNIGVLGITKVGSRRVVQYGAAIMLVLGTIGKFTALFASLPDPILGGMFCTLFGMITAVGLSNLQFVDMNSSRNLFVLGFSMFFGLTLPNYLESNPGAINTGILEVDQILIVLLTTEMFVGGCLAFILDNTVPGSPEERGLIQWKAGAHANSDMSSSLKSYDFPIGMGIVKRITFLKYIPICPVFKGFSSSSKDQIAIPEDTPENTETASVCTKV
Sequence of SVCT (Canis lupus familiaris, UniProt A8CX01) (A8CX01 1-605): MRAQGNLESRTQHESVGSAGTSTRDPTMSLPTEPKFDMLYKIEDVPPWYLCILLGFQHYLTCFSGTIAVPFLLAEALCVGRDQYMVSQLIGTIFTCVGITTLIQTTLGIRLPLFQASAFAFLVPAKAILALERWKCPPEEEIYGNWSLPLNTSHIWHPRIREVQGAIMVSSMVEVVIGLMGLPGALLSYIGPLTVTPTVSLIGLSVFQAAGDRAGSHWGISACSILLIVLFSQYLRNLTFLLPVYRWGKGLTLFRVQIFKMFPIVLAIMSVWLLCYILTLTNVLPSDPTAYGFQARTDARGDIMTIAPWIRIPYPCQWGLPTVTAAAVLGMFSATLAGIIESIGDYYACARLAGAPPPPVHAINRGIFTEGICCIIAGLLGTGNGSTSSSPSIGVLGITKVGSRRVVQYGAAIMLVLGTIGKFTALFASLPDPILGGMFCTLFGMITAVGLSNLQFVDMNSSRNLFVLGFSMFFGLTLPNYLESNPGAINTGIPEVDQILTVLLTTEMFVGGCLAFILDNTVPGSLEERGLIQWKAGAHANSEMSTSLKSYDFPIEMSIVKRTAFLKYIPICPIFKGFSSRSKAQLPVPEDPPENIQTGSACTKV

| SMILES | Uptake of [14C]AA diminished (inhibition) [1] [%] | Papp A→B at 3 h, 23.5 μM [2] [×10⁻⁶ cm/s] | Papp B→A at 3 h, 23.5 μM [2] [×10⁻⁶ cm/s] | P(A–B) [3, 8] | P(B–A) [3, 8] | PA–B and PB–A in Caco-2 cells higher than in MDCK-MDR1 cells ([3]; Caco-2 vs MDCK-MDR1) | Inhibition of [14C]AA uptake [4] [%] | P(A–B) [5] | P(B–A) [5] | solubility at 24 h [6] [µM] | P(A–B) [7] | P(B–A) [7] | PA–B [7] [×10⁻⁶ cm/s] |
| --- | --- | --- | --- | --- | --- | --- | --- | --- | --- | --- | --- | --- | --- |
| O=C1O[C@H]([C@@H](O)CO)C(O)=C1O [AA, L-Ascorbic acid] | 65 | 17.6 ± 0.39 | 15.5 ± 3.11 | 17.6 ± 0.39 cm/s, × 10^−6 | 15.5 ± 3.11 cm/s, × 10^−6 | about 2 fold | 66 | – | – | – | – | – | – |
| CC(C)(C)NC(=O)[C@@H]1C[C@@H]2CCCC[C@@H]2CN1C[C@@H](O)[C@H](Cc1ccccc1)NC(=O)[C@H](CC(N)=O)NC(=O)c1ccc2ccccc2n1 [Saq, Saquinavir] | – | – | – | – | – | – | – | 0.93 cm/s, × 10^−6 and 0.93 ±0.10 cm/s, × 10^−6 | 20.39 ± 1.53 cm/s, × 10^−6 | 1750 ± 290 (≈ 1170 µg/mL) | 0.463 ± 0.025 cm/s, × 10^−6 | 19.9 ± 1.70 cm/s, × 10^−6 | 0.463 |
